Values joined by “and” are separate entries in the source; they are usually repeats but may differ in a detail not shown here. Identical values can stand only once.
Columns and labels:
BRD4 BD1 protein = BRD4 BD1 protein (Homo sapiens (Human), UniProt O60885); assay: Fluorescence polarization binding affinity (Ki) with BRD4 BD1 protein; details: fluorescence polarization; Ki calculated from IC50
BRD4 BD2 protein = BRD4 BD2 protein (Homo sapiens (Human), UniProt O60885); assay: Fluorescence polarization binding affinity (Ki) with BRD4 BD2 protein; set-up: BRD4 BD2 Ki: reference not given here; details: fluorescence polarization; Ki calculated from IC50
[1] = test system: leukemia MV4-11 cell line; assay: Cell viability (CCK-8), leukemia MV4-11; type: cell-based; details: Homo sapiens, 96 h; MV4-11 cells, 4 days, CCK-8, 50% inhibition of cell growth
Procedure: 3. Determination of cell viability of the compound
The sample to be tested was dissolved with 100% dimethyl sulfoxide to prepare a 20 mM stock solution of the compound, which was diluted with 100% dimethyl sulfoxide to the highest compound concentration required for the experiment (2.5 mM).
First, 145 uL of a complete cell culture medium was added to wells B1-G1 of a 96-well flat-bottomed tansparent cell culture plate, and 100 uL of the complete medium was added to wells B2-G12, respectively. Then, 5 uL of the 2.5 mM solution of the compound was added to wells B1-D1 and E1-G1 respectively, and then diluted gradiently by 3-folds to B12-D12 and E12-G12 in sequence. Finally, 50 uL of the solution of the cells to be tested was added to each well, with about 3000-5000 cells per well, and a total volume of 150 uL per well.
In the experiment, in addition to the tested compound, two other control groups were set up: 1) a control group adding the cells and the complete medium, but without adding the compound; 2) a control group adding the complete medium only, without adding the cells and the compound. The 96-well plate was placed in a 37° C. cell culture incubator containing 5% carbon dioxide for 4 days, added with 15 uL of a CCK-8 reagent per well, and then incubated at 37° C. for 2-4 hours. The 96-well plate was read on a TECAN microplate reader, and the absorbance value at 450 nm wavelength was taken.
The effect of different concentrations of the compound on cell viability was calculated by the following equation: [absorption value of the experimental group−absorption value of pure cell culture medium without the cells or the compound]/[absorption value of the control group with the tumor cells but no testing compound−absorption value of pure cell culture medium without the cell or the compound]×100%.
The above data were precessed by software, and the IC50 value was the concentration of the compound corresponding to the 50% inhibition rate of cell growth.
Based on the above test method of the compound on cell viability, a variety of […] cancer cell lines were tested, using multiple myeloma MM.1S, breast cancer MDA-MB-231 and leukemia MV4-11 cell lines as exemples. Using this test method, the IC50 values of partial compounds in the examples of the present invention measured in multiple myeloma MM.1S, breast cancer MDA-MB-231 cell lines and leukemia MV4-11 cell lines were shown in Table 2.

[2] = test system: multiple myeloma MM.1S cell line; assay: Cell viability (CCK-8), multiple myeloma MM.1S; type: cell-based; details: Homo sapiens, MM1.S, 96 h, MM.1S cells, 4 days, CCK-8, 50% inhibition of cell growth
Summary of the method: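 Cells (about 3000-5000 per well) exposed to 3-fold serial dilutions of compound for 4 days at 37° C, 5% CO2. CCK-8 added 2-4 h, absorbance at 450 nm, viability normalised to untreated cells after medium-only blank subtraction; IC50 is concentration giving 50% growth inhibition.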

SMILES | Ki (BRD4 BD1 protein) | Ki (BRD4 BD2 protein) | IC50 [2] | IC50 [1] | BRD4 BD2 Ki (BRD4 BD2 protein)
CNC(=O)Cc1cccc(NC2CCn3nnc(C)c3-c3ccc(-c4cnn(C)c4)cc32)c1 (centres unmarked) [LC10, N-methyl-2-(3-((1-methyl-9-(1-methyl-1H-pyrazol-4-yl)-6,7-dihydro-5H-benzo[c][1,2,3]triazolo[1,5-a]azepin-7-yl)amino)phenyl)acetamide] | 0.0693 µM | – | 0.104 µM | 0.0128 µM | <Kd
CCN1CC=C(c2ccc3c(c2)C(Nc2ccc(Cl)cc2)CCn2nnc(C)c2-3)CC1 (centres unmarked) [LD23, N-(4-chlorophenyl)-9-(1-ethyl-1,2,3,6-tetrahydropyridin-4-yl)-1-methyl-6,7-dihydro-5H-benzo[c][1,2,3]triazolo[1,5-a]azepin-7-amine 2,2,2-trifluoroacetate] | 0.334 µM | 0.0415 µM | 0.443 µM | 0.00732 µM | –
Cc1nnn2c1-c1ccc(C3=CCN(C4CCCCC4)CC3)cc1C(Nc1ccc(F)c(Cl)c1)CC2 (centres unmarked) [LD76, N-(3-chloro-4-fluorophenyl)-9-(1-cyclohexyl-1,2,3,6-tetrahydropyridin-4-yl)-1-methyl-6,7-dihydro-5H-benzo[c][1,2,3]triazolo[1,5-a]azepin-7-amine 2,2,2-trifluoroacetate] | 1.06 µM | 0.0107 µM and 0.0361 µM | 0.879 µM | 0.105 µM | –
Cc1nnn2c1-c1ccc(C3=CCN(C(C)C)CC3)cc1C(Nc1ccc(Cl)cc1)CC2 (centres unmarked) [LD24, N-(4-chlorophenyl)-9-(1-isopropyl-1,2,3,6-tetrahydropyridin-4-yl)-1-methyl-6,7-dihydro-5H-benzo[c][1,2,3]triazolo[1,5-a]azepin-7-amine 2,2,2-trifluoroacetate] | 0.293 µM | 0.0216 µM | 0.447 µM | 0.019 µM | –
Cc1nnn2c1-c1ccc(C3=CCN(C4CCC4)CC3)cc1C(Nc1cccc(Cl)c1)CC2 (centres unmarked) [BH159, N-(3-chlorophenyl)-9-(1-cyclobutyl-1,2,3,6-tetrahydropyridin-4-yl)-1-methyl-6,7-dihydro-5H-benzo[c][1,2,3]triazolo[1,5-a]azepin-7-amine 2,2,2-trifluoroacetate] | 0.879 µM | 0.00931 µM | 0.285 µM | 0.0752 µM | –
Cc1nnn2c1-c1ccc(C3=CCN(C4CCCCC4)CC3)cc1C(Nc1cccc(Cl)c1)CC2 (centres unmarked) [BH104, N-(3-chlorophenyl)-9-(1-cyclohexyl-1,2,3,6-tetrahydropyridin-4-yl)-1-methyl-6,7-dihydro-5H-benzo[c][1,2,3]triazolo[1,5-a]azepin-7-amine 2,2,2-trifluoroacetate] | 0.71 µM | 0.0134 µM | 0.119 µM | 0.00132 µM | –
CCN1CC=C(c2ccc3c(c2)C(Nc2cccc(Cl)c2)CCn2nnc(C)c2-3)CC1 (centres unmarked) [BH36, N-(3-chlorophenyl)-9-(1-ethyl-1,2,3,6-tetrahydropyridin-4-yl)-1-methyl-6,7-dihydro-5H-benzo[c][1,2,3]triazolo[1,5-a]azepin-7-amine 2,2,2-trifluoroacetate] | 0.717 µM and 1.4 µM | 0.0138 µM and 0.016 µM | 0.146 µM | 0.0575 µM | –
Cc1nnn2c1-c1ccc(-c3cnn(C)c3)cc1C(Oc1ccc(Cl)cc1)CC2 (centres unmarked) [BE128, 7-(4-chlorophenoxy)-1-methyl-9-(1-methyl-1H-pyrazol-4-yl)-6,7-dihydro-5H-benzo[c][1,2,3]triazolo[1,5-a]azepine] | 0.176 µM | 0.0171 µM | 0.689 µM | – | –
Cc1nnn2c1-c1ccc(-c3cnn(C)c3)cc1C(Oc1ccc(F)cc1F)CC2 (centres unmarked) [BE95, 7-(2,4-difluorophenoxy)-1-methyl-9-(1-methyl-1H-pyrazol-4-yl)-6,7-dihydro-5H-benzo[c][1,2,3]triazolo[1,5-a]azepine] | 0.577 µM | 0.0869 µM | 3.19 µM | – | –
Cc1nnn2c1-c1ccc(-c3cnn(C)c3)cc1C(Nc1cc(C3CC3)nn1C)CC2 (centres unmarked) [BE130, N-(3-cyclopropyl-1-methyl-1H-pyrazol-5-yl)-1-methyl-9-(1-methyl-1H-pyrazol-4-yl)-6,7-dihydro-5H-benzo[c][1,2,3]triazolo[1,5-a]azepin-7-amine] | 0.139 µM | 0.0299 µM | 0.171 µM | – | –

The next lines start with results.

Ki (BRD4 BD1 protein) | Ki (BRD4 BD2 protein) | IC50 [2] | SMILES | IC50 [1] | BRD4 BD2 Ki (BRD4 BD2 protein)
1.62 µM | 0.0129 µM and 0.0279 µM | 0.248 µM | Cc1nnn2c1-c1ccc(C3=CCN(C4CCCC4)CC3)cc1C(Nc1cc(Cl)ccc1F)CC2 (centres unmarked) [BH190, N-(5-chloro-2-fluorophenyl)-9-(1-cyclopentyl-1,2,3,6-tetrahydropyridin-4-yl)-1-methyl-6,7-dihydro-5H-benzo[c][1,2,3]triazolo[1,5-a]azepin-7-amine 2,2,2-trifluoroacetate] | 0.0628 µM | –
0.0078 µM | – | 0.0252 µM | CNC(=O)Cc1ccccc1NC1CCn2nnc(C)c2-c2ccc(-c3cnn(C)c3)cc21 (centres unmarked) [LC11, N-methyl-2-(2-((1-methyl-9-(1-methyl-1H-pyrazol-4-yl)-6,7-dihydro-5H-benzo[c][1,2,3]triazolo[1,5-a]azepin-7-yl)amino)phenyl)acetamide] | 0.0154 µM | <Kd
0.106 µM | 0.00345 µM | 0.00615 µM | CC(=O)N1CC=C(c2ccc3c(c2)C(Nc2cc(Cl)ccc2F)CCn2nnc(C)c2-3)CC1 (centres unmarked) [BH192, 1-(4-(7-((5-chloro-2-fluorophenyl)amino)-1-methyl-6,7-dihydro-5H-benzo[c][1,2,3]triazolo[1,5-a]azepin-9-yl)-3,6-dihydropyridin-1 (2H)-yl)ethan-1-one] | 0.00021 µM | –
1.72 µM | 0.0288 µM | 1.3 µM | Cc1nnn2c1-c1ccc(C3=CCN(C4CCCCC4)CC3)cc1C(Nc1cc(Cl)ccc1F)CC2 (centres unmarked) [BH187, N-(5-chloro-2-fluorophenyl)-9-(1-cyclohexyl-1,2,3,6-tetrahydropyridin-4-yl)-1-methyl-6,7-dihydro-5H-benzo[c][1,2,3]triazolo[1,5-a]azepin-7-amine 2,2,2-trifluoroacetate] | 0.106 µM | –
0.133 µM | 0.0179 µM | 0.121 µM | COC(=O)c1cccc(NC2CCn3nnc(C)c3-c3ccc(-c4cnn(C)c4)cc32)c1 (centres unmarked) [LB92, methyl 3-((1-methyl-9-(1-methyl-1H-pyrazol-4-yl)-6,7-dihydro-5H-benzo[c][1,2,3]triazolo[1,5-a]azepin-7-yl)amino)benzoate] | – | –
0.426 µM | 0.0505 µM | 0.143 µM | Cc1nnn2c1-c1ccc(-c3cnn(C)c3)cc1C(Nc1ccc3cccnc3c1)CC2 (centres unmarked) [LB89, 1-methyl-9-(1-methyl-1H-pyrazol-4-yl)-N-(quinolin-7-yl)-6,7-dihydro-5H-benzo[c][1,2,3]triazolo[1,5-a] azepin-7-amine] | – | –
0.0748 µM | 0.00478 µM | 0.152 µM | Cc1nnn2c1-c1ccc(-c3cnn(C)c3)cc1C(Nc1ccccc1O)CC2 (centres unmarked) [LB170, 2-((1-methyl-9-(1-methyl-1H-pyrazol-4-yl)-6,7-dihydro-5H-benzo[c][1,2,3]triazolo[1,5-a]azepin-7-yl)amino)phenol] | – | –
0.0645 µM | 0.0224 µM | 0.0517 µM | Cc1nnn2c1-c1ccc(-c3cnn(C)c3)cc1C(Nc1ccc(CCO)cc1)CC2 (centres unmarked) [LB24, 2-(4-((1-methyl-9-(1-methyl-1H-pyrazol-4-yl)-6,7-dihydro-5H-benzo[c][1,2,3]triazolo[1,5-a]azepin-7-yl)amino)phenyl)ethan-1-ol] | – | –
0.0822 µM | 0.0137 µM | 0.0366 µM | CNC(=O)c1ccccc1NC1CCn2nnc(C)c2-c2ccc(-c3cnn(C)c3)cc21 (centres unmarked) [LB186] | – | –
0.0899 µM | 0.0129 µM | 0.323 µM | Cc1nnn2c1-c1ccc(-c3ccc4c(c3)OCO4)cc1C(Nc1ccc(Cl)cc1)CC2 (centres unmarked) [RB11, 9-(benzo[d][1,3]dioxo1-5-yl)-N-(4-chlorophenyl)-1-methyl-6,7-dihydro-5H-benzo[c][1,2,3]triazolo[1,5-a]azepin-7-amine] | – | –
0.169 µM | 0.105 µM | 0.559 µM | COc1ccc(NC2CCc3onc(C)c3-c3ccc(OC)cc32)cc1 (centres unmarked) [FA01, 8-methoxy-N-(4-methoxyphenyl)-1-methyl-5,6-dihydro-4H-benzo[6,7]cyclohepta[1,2-d]isoxazol-6-amine] | – | –

— patent US12286435B2, “Compound having benzo seven-membered ring structure, preparation method therefor, and use thereof” (BIONNA (BEIJING) MEDICAL TECHNOLOGY CO., LTD., priority 2019, dated 2025)
